# Results published in ChEMBL document CHEMBL1671738, “In vitro pharmacokinetic and pharmacodynamic evaluation of S-013420 against Haemophilus influenzae and Streptococcus pneumoniae” (Antimicrob Agents Chemother, 2010).
# Assays:
# [1] = system: Haemophilus influenzae; test: %TMIC in Haemophilus influenzae SR24169 clinical isolate based on area above the killing curve index by half maximum antibacterial activity criteria based in vitro pharmacodynamic model; type: functional
# [2] = system: Streptococcus pneumoniae; test: Half maximum antibacterial activity against erythromycin-susceptible Streptococcus pneumoniae SR26229 clinical isolate based on viable cell reduction at 24 hrs index in vitro pharmacodynamic model; type: ADME, organism-based
# [3] = system: Streptococcus pneumoniae; test: Half maximum antibacterial activity against erythromycin-resistant Streptococcus pneumoniae SR26143 clinical isolate expressing mefA gene based on viable cell reduction at 24 hrs index in vitro pharmacodynamic model; type: ADME, organism-based
# [4] = system: Streptococcus pneumoniae; test: Antibacterial activity against erythromycin-resistant Streptococcus pneumoniae SR26132 clinical isolate expressing ermB gene by broth microdilution method; type: functional
# [5] = system: Streptococcus pneumoniae; test: Half life in erythromycin-resistant Streptococcus pneumoniae SR26143 clinical isolate expressing mefA gene in vitro pharmacodynamic model; type: ADME, organism-based; conditions: in vivo
# [6] = system: Haemophilus influenzae; test: Ratio of AUC (0 to 24 hrs) to MIC in Haemophilus influenzae SR24169 clinical isolate based on viable cell reduction at 24 hrs index by half maximum antibacterial activity criteria based in vitro pharmacodynamic model; type: functional
# [7] = system: Haemophilus influenzae; test: Ratio of AUC (0 to 24 hrs) to MIC in Haemophilus influenzae SR24169 clinical isolate based on viable cell reduction at 24 hrs index by maximum antibacterial activity criteria based in vitro pharmacodynamic model; type: functional
# [8] = system: Streptococcus pneumoniae; test: Half life in erythromycin-resistant Streptococcus pneumoniae SR26132 clinical isolate expressing ermB gene in vitro pharmacodynamic model; type: ADME, organism-based; conditions: in vivo
# [9] = system: Streptococcus pneumoniae; test: Ratio of AUC (0 to 24 hrs) to MIC in erythromycin-resistant Streptococcus pneumoniae SR26132 clinical isolate expressing ermB gene by bacteriostatic effect criteria based in vitro pharmacodynamic model; type: functional
# [10] = system: Haemophilus influenzae; test: %TMIC in Haemophilus influenzae SR24169 clinical isolate based on area above the killing curve index by maximum antibacterial activity criteria based in vitro pharmacodynamic model; type: functional
# [11] = system: Streptococcus pneumoniae; test: Cmax in erythromycin-resistant Streptococcus pneumoniae SR26132 clinical isolate expressing ermB gene in vitro pharmacodynamic model; type: ADME, organism-based; conditions: in vivo
# [12] = system: Streptococcus pneumoniae; test: Ratio of AUC (0 to 24 hrs) to MIC in erythromycin-susceptible Streptococcus pneumoniae SR26229 clinical isolate by bacteriostatic effect criteria based in vitro pharmacodynamic model; type: functional
# [13] = system: Streptococcus pneumoniae; test: Minimum antibacterial activity against erythromycin-resistant Streptococcus pneumoniae SR26143 clinical isolate expressing mefA gene based on viable cell reduction at 24 hrs index in vitro pharmacodynamic model; type: ADME, organism-based
# [14] = system: Haemophilus influenzae; test: Antibacterial activity against Haemophilus influenzae SR24169 clinical isolate by broth microdilution method; type: functional
# [15] = system: Haemophilus influenzae; test: %TMIC in Haemophilus influenzae SR24169 clinical isolate based on area above the killing curve index by minimum antibacterial activity criteria based in vitro pharmacodynamic model; type: functional
# [16] = system: Streptococcus pneumoniae; test: Maximum antibacterial activity against erythromycin-resistant Streptococcus pneumoniae SR26143 clinical isolate expressing mefA gene based on area above the killing curve index in vitro pharmacodynamic model; type: ADME, organism-based; conditions: in vivo
# [17] = system: Haemophilus influenzae; test: AUC (0 to 24 hrs) in Haemophilus influenzae SR24169 clinical isolate in vitro pharmacodynamic model; type: ADME, organism-based; parameters: time < 24 hr; conditions: in vivo
# [18] = system: Haemophilus influenzae; test: %TMIC in Haemophilus influenzae SR24169 clinical isolate based on viable cell reduction at 24 hrs index by minimum antibacterial activity criteria based in vitro pharmacodynamic model; type: functional
# [19] = system: Streptococcus pneumoniae; test: Ratio of AUC (0 to 24 hrs) to MIC in erythromycin-resistant Streptococcus pneumoniae SR26132 clinical isolate expressing ermB gene by maximal efficacy criteria based in vitro pharmacodynamic model; type: functional
# [20] = system: Streptococcus pneumoniae; test: Minimum antibacterial activity against erythromycin-resistant Streptococcus pneumoniae SR26132 clinical isolate expressing ermB gene based on viable cell reduction at 24 hrs index in vitro pharmacodynamic model; type: ADME, organism-based
# [21] = system: Haemophilus influenzae; test: Ratio of AUC (0 to 24 hrs) to MIC in Haemophilus influenzae SR24169 clinical isolate based on area above the killing curve index by minimum antibacterial activity criteria based in vitro pharmacodynamic model; type: functional
# [22] = system: Streptococcus pneumoniae; test: Cmax in erythromycin-resistant Streptococcus pneumoniae SR26143 clinical isolate expressing mefA gene in vitro pharmacodynamic model; type: ADME, organism-based; conditions: in vivo
# [23] = system: Streptococcus pneumoniae; test: Maximum antibacterial activity against erythromycin-susceptible Streptococcus pneumoniae SR26229 clinical isolate based on area above the killing curve index in vitro pharmacodynamic model; type: ADME, organism-based; conditions: in vivo
# [24] = system: Streptococcus pneumoniae; test: Half life in erythromycin-susceptible Streptococcus pneumoniae SR26229 clinical isolate in vitro pharmacodynamic model; type: ADME, organism-based; conditions: in vivo
# [25] = system: Streptococcus pneumoniae; test: Half maximum antibacterial activity against erythromycin-resistant Streptococcus pneumoniae SR26132 clinical isolate expressing ermB gene based on viable cell reduction at 24 hrs index in vitro pharmacodynamic model; type: ADME, organism-based
# [26] = system: Streptococcus pneumoniae; test: AUC (0 to 24 hrs) in erythromycin-resistant Streptococcus pneumoniae SR26143 clinical isolate expressing mefA in vitro pharmacodynamic model; type: ADME, organism-based; parameters: time < 24 hr; conditions: in vivo
# [27] = system: Haemophilus influenzae; test: Ratio of AUC (0 to 24 hrs) to MIC in Haemophilus influenzae SR24169 clinical isolate by maximal efficacy criteria based in vitro pharmacodynamic model; type: functional
# [28] = system: Haemophilus influenzae; test: Ratio of AUC (0 to 24 hrs) to MIC in Haemophilus influenzae SR24169 clinical isolate based on viable cell reduction at 24 hrs index by minimum antibacterial activity criteria based in vitro pharmacodynamic model; type: functional
# [29] = system: Haemophilus influenzae; test: Ratio of AUC (0 to 24 hrs) to MIC in Haemophilus influenzae SR24169 clinical isolate by bacteriostatic effect criteria based in vitro pharmacodynamic model; type: functional
# [30] = system: Streptococcus pneumoniae; test: Ratio of AUC (0 to 24 hrs) to MIC in erythromycin-resistant Streptococcus pneumoniae SR26143 clinical isolate expressing mefA gene by bacteriostatic effect criteria based in vitro pharmacodynamic model; type: functional
# [31] = system: Haemophilus influenzae; test: Ratio of Cmax to MIC in Haemophilus influenzae SR24169 clinical isolate based on viable cell reduction at 24 hrs index by minimum antibacterial activity criteria based in vitro pharmacodynamic model; type: functional
# [32] = system: Streptococcus pneumoniae; test: Minimum antibacterial activity against erythromycin-susceptible Streptococcus pneumoniae SR26229 clinical isolate based on area above the killing curve index in vitro pharmacodynamic model; type: ADME, organism-based; conditions: in vivo
# [33] = system: Haemophilus influenzae; test: Cmax in Haemophilus influenzae SR24169 clinical isolate in vitro pharmacodynamic model; type: ADME, organism-based; conditions: in vivo
# [34] = system: Streptococcus pneumoniae; test: Cmax in erythromycin-susceptible Streptococcus pneumoniae SR26229 clinical isolate in vitro pharmacodynamic model; type: ADME, organism-based; conditions: in vivo
# [35] = system: Streptococcus pneumoniae; test: Minimum antibacterial activity against erythromycin-susceptible Streptococcus pneumoniae SR26229 clinical isolate based on viable cell reduction at 24 hrs index in vitro pharmacodynamic model; type: ADME, organism-based
# [36] = system: Haemophilus influenzae; test: Ratio of Cmax to MIC in Haemophilus influenzae SR24169 clinical isolate based on area above the killing curve index by maximum antibacterial activity criteria based in vitro pharmacodynamic model; type: functional
# [37] = system: Streptococcus pneumoniae; test: Half maximum antibacterial activity against erythromycin-resistant Streptococcus pneumoniae SR26132 clinical isolate expressing ermB gene based on area above the killing curve index in vitro pharmacodynamic model; type: ADME, organism-based; conditions: in vivo
# [38] = system: Streptococcus pneumoniae; test: Maximum antibacterial activity against erythromycin-resistant Streptococcus pneumoniae SR26132 clinical isolate expressing ermB gene based on viable cell reduction at 24 hrs index in vitro pharmacodynamic model; type: ADME, organism-based
# [39] = system: Streptococcus pneumoniae; test: Ratio of AUC (0 to 24 hrs) to MIC in erythromycin-resistant Streptococcus pneumoniae SR26143 clinical isolate expressing mefA gene by maximal efficacy criteria based in vitro pharmacodynamic model; type: functional
# [40] = system: Streptococcus pneumoniae; test: Antibacterial activity against erythromycin-resistant Streptococcus pneumoniae SR26143 clinical isolate expressing mefA gene by broth microdilution method; type: functional
# [41] = system: Haemophilus influenzae; test: Ratio of AUC (0 to 24 hrs) to MIC in Haemophilus influenzae SR24169 clinical isolate based on area above the killing curve index by maximum antibacterial activity criteria based in vitro pharmacodynamic model; type: functional
# [42] = system: Streptococcus pneumoniae; test: AUC (0 to 24 hrs) in erythromycin-susceptible Streptococcus pneumoniae SR26229 clinical isolate in vitro pharmacodynamic model; type: ADME, organism-based; parameters: time < 24 hr; conditions: in vivo
# [43] = system: Streptococcus pneumoniae; test: Half maximum antibacterial activity against erythromycin-susceptible Streptococcus pneumoniae SR26229 clinical isolate based on area above the killing curve index in vitro pharmacodynamic model; type: ADME, organism-based; conditions: in vivo
# [44] = system: Haemophilus influenzae; test: Ratio of Cmax to MIC in Haemophilus influenzae SR24169 clinical isolate based on area above the killing curve index by minimum antibacterial activity criteria based in vitro pharmacodynamic model; type: functional
# [45] = system: Streptococcus pneumoniae; test: Maximum antibacterial activity against erythromycin-resistant Streptococcus pneumoniae SR26143 clinical isolate expressing mefA gene based on viable cell reduction at 24 hrs index in vitro pharmacodynamic model; type: ADME, organism-based
# [46] = system: Streptococcus pneumoniae; test: Half maximum antibacterial activity against erythromycin-resistant Streptococcus pneumoniae SR26143 clinical isolate expressing mefA gene based on area above the killing curve index in vitro pharmacodynamic model; type: ADME, organism-based; conditions: in vivo
# [47] = system: Haemophilus influenzae; test: %TMIC in Haemophilus influenzae SR24169 clinical isolate based on viable cell reduction at 24 hrs index by maximum antibacterial activity criteria based in vitro pharmacodynamic model; type: functional
# [48] = system: Haemophilus influenzae; test: Ratio of AUC (0 to 24 hrs) to MIC in Haemophilus influenzae SR24169 clinical isolate based on area above the killing curve index by half maximum antibacterial activity criteria based in vitro pharmacodynamic model; type: functional
# [49] = system: Streptococcus pneumoniae; test: Antibacterial activity against erythromycin-susceptible Streptococcus pneumoniae SR26229 clinical isolate by broth microdilution method; type: functional
# [50] = system: Streptococcus pneumoniae; test: AUC (0 to 24 hrs) in erythromycin-resistant Streptococcus pneumoniae SR26132 clinical isolate expressing ermB gene in vitro pharmacodynamic model; type: ADME, organism-based; parameters: time < 24 hr; conditions: in vivo
# [51] = system: Streptococcus pneumoniae; test: Maximum antibacterial activity against erythromycin-resistant Streptococcus pneumoniae SR26132 clinical isolate expressing ermB gene based on area above the killing curve index in vitro pharmacodynamic model; type: ADME, organism-based; conditions: in vivo
# [52] = system: Haemophilus influenzae; test: Half life in Haemophilus influenzae SR24169 clinical isolate in vitro pharmacodynamic model; type: ADME, organism-based; conditions: in vivo
# [53] = system: Streptococcus pneumoniae; test: Maximum antibacterial activity against erythromycin-susceptible Streptococcus pneumoniae SR26229 clinical isolate based on viable cell reduction at 24 hrs index in vitro pharmacodynamic model; type: ADME, organism-based
# [54] = system: Haemophilus influenzae; test: Ratio of Cmax to MIC in Haemophilus influenzae SR24169 clinical isolate based on viable cell reduction at 24 hrs index by maximum antibacterial activity criteria based in vitro pharmacodynamic model; type: functional
# [55] = system: Streptococcus pneumoniae; test: Ratio of AUC (0 to 24 hrs) to MIC in erythromycin-susceptible Streptococcus pneumoniae SR26229 clinical isolate by maximal efficacy criteria based in vitro pharmacodynamic model; type: functional
# [56] = system: Haemophilus influenzae; test: Ratio of Cmax to MIC in Haemophilus influenzae SR24169 clinical isolate based on area above the killing curve index by half maximum antibacterial activity criteria based in vitro pharmacodynamic model; type: functional
structure (smiles),measurement,setting,value
"CC[C@H]1OC(=O)[C@H](C)C(=O)[C@H](C)[C@@H](O[C@@H]2O[C@H](C)C[C@H](N(C)C)[C@H]2O)[C@@]2(C)C[C@@H](C)/C(=N\C(C)=O)[C@H](C)C(OC/C(=N\OCc3ccc(-n4cccn4)nc3)CO2)[C@]1(C)O (single isomer, unassigned)",Ratio,[1],3.0676
same,Activity,[2],9.35
same,Activity,[3],15.89
same,MIC,[4],0.25 µg/mL
same,t1/2,[5],17.6 h
same,Ratio,[6],10.1172
same,Ratio,[7],6.4436
same,t1/2,[8],17.6 h
same,Ratio,[9],4.66
same,Ratio,[10],79.0912
same,Cmax,[11],16 ng/mL
same,Ratio,[12],9.01
same,Activity,[13],2.36
same,MIC,[14],8 µg/mL
same,Ratio,[15],0
same,Activity,[16],80.2
same,AUC,[17],8610 ng·h/mL
same,Ratio,[18],-1.1805
same,Ratio,[19],22
same,Activity,[20],-2.14
same,Ratio,[21],0
same,Cmax,[22],8 ng/mL
same,Activity,[23],78.23
same,t1/2,[24],17.6 h
same,Activity,[25],5.11
same,AUC,[26],140 ng·h/mL
same,Ratio,[27],10.8
same,Ratio,[28],-2.4461
same,Ratio,[29],9.63
same,Ratio,[30],15.2
same,Ratio,[31],-2.3622
same,Activity,[32],0
same,Cmax,[33],506 ng/mL
same,Cmax,[34],4 ng/mL
same,Activity,[35],2.64
same,Ratio,[36],75.7785
same,Activity,[37],8.75
same,Activity,[38],5.98
same,Ratio,[39],22.3
same,MIC,[40],0.125 µg/mL
same,Ratio,[41],80.2825
same,AUC,[42],70 ng·h/mL
same,Activity,[43],9.96
same,Ratio,[44],0
same,Activity,[45],6.12
same,Activity,[46],16.64
same,Ratio,[47],4.6778
same,Ratio,[48],6.9338
same,MIC,[49],0.063 µg/mL
same,AUC,[50],280 ng·h/mL
same,Activity,[51],84.15
same,t1/2,[52],2.22 h
same,Activity,[53],6.22
same,Ratio,[54],6.0956
same,Ratio,[55],16.3
same,Ratio,[56],0.6894
